Assays:
Cannabinoid receptor 2 = Cannabinoid receptor 2 (Homo sapiens, UniProt P34972); test: Binding affinity to CB2 receptor
Cannabinoid receptor 1 = Cannabinoid receptor 1 (Homo sapiens, UniProt P21554); test: Binding affinity to CB1 receptor
Chain of Cannabinoid receptor 1 (P21554 whole entry): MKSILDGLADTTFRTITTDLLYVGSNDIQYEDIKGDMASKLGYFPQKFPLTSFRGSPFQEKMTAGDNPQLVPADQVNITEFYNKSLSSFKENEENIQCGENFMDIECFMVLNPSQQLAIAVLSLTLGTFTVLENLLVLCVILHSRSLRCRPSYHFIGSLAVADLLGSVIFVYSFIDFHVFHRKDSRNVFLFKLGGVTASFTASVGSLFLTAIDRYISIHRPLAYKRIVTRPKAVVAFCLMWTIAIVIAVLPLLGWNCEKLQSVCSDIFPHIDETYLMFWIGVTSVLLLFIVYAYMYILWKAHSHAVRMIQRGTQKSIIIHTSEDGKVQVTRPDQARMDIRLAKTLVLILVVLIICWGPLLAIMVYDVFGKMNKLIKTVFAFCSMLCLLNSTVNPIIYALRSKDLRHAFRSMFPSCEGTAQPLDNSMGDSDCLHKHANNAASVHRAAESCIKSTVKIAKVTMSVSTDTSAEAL

Chain of Cannabinoid receptor 2 (P34972 whole entry): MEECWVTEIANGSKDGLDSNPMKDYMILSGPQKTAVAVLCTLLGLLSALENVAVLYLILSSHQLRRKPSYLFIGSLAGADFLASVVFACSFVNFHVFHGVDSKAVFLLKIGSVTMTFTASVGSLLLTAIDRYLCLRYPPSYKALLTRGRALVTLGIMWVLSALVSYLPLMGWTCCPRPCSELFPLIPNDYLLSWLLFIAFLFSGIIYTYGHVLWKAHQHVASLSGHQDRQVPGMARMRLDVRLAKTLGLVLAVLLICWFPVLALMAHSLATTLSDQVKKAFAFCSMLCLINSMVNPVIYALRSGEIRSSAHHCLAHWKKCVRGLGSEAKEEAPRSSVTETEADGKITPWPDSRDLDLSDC

SMILES | Ki (Cannabinoid receptor 2) | Ki (Cannabinoid receptor 1)
CC(=O)Nc1cccc(C(C)(C)c2cc(O)c3c(c2)OC(C)(C)[C@@H]2CC=C(C)C[C@@H]32)c1 | 13.6 nM | 13.7 nM
CC1=CC[C@@H]2[C@@H](C1)c1c(O)cc(C3C4CC5CC(C4)CC3C5)cc1OC2(C)C (stereo not given in full) | 14 nM | 34.9 nM
CC1=CC[C@@H]2[C@@H](C1)c1c(O)cc(C=C3C4CC5CC(C4)CC3C5)cc1OC2(C)C | 8.9 nM | 48.6 nM
CC1=CC[C@@H]2[C@@H](C1)c1c(O)cc(CC3C4CC5CC(C4)CC3C5)cc1OC2(C)C (stereo not given in full) | 76 nM | 79.7 nM
CC1=CC[C@@H]2[C@@H](C1)c1c(O)cc(CC34CC5CC(CC(C5)C3)C4)cc1OC2(C)C | 26.9 nM | 29.3 nM

From ChEMBL document CHEMBL1153934, “Quantitative structure-activity relationship (QSAR) for a series of novel cannabinoid derivatives using descriptors derived from semi-empirical quantum-chemical calculations” (Bioorg Med Chem, 2009)
